From patent US12213483B1, “Herbicidal compositions comprising trifludimoxazin” (BASF SE, priority 2024, dated 2025)

Tests used:
Type in all cases: in vivo
[1] = test system: Digitaria sanguinales (DIGSA); assay: Post-emergence application in greenhouse trials, DIGSA
Experimental: (§1) In the examples below, using the method of S. R. Colby (1967) “Calculating synergistic and antagonistic responses of herbicide combinations”, Weeds 15, p. 22ff., the value E, which is expected if the activity of the individual active compounds is only additive, was calculated: E=X+Y−(X·Y/100) • where • X=percent activity using active herbicide A at an application rate a; • Y=percent activity using active trifludimoxazin at an application rate b; • E=expected activity (in %) by A+B at application rates a+b.
(§2) If the value found experimentally is higher than the value E calculated according to Colby, a synergistic effect is present.
(§3) The culture containers used were plastic pots containing loamy sand with approximately 3.0% of humus as substrate. The seeds of the test plants were sown separately for each species.
(§4) For the post-emergence treatment, the test plants were grown to a plant height of from 3 to 15 cm, depending on the plant habit, and only then treated with the active compounds which had been suspended or emulsified in water. To this end, the test plants were either sown directly, and grown in the same containers, or they were first grown separately as seedlings and transplanted into the test containers a few days prior to treatment.
(§5) Depending on the species, the plants were kept at 10-25° C. and 20-35° C., respectively.
(§6) The test period extended over 2 to 4 weeks. During this time, the plants were tended and their response to the individual treatments was evaluated.
(§7) Evaluation was carried out using a scale from 0 to 100. 100 means no emergence of the plants, or complete destruction of at least the above-ground parts, and 0 means no damage or normal course of growth. A good herbicidal activity is given at values of at least 70, and very good herbicidal activity is given at values of at least 85.
(§8) In the greenhouse trials, unless indicated otherwise, herbicide A, trifludimoxazin and saflufenacil were formulated (50 g/I) and applied with addition of 1% MSO (methylated seed oil) as adjuvant. The solvent used was water (200 I/ha).

[2] = test system: Spermacoce latifolia (BOIFL); assay: Post-emergence application in field trials, BOIFL; conditions: 8 DAT, water volume 200 l/ha, growth stage 12-16, height 3-10 cm
Experimental: as §1, §2
(§9) On field test sites, natural weed infestation or seeded weeds were treated post-emergence of the weeds.
(§10) In the field trials, the weedy plants were treated as indicated below.
(§11) Herbicide A-1 (342 g/I), trifludimoxazin (500 g/I) and saflufenacil (342 g/I) were, together with addition of 1% MSO (methylated seed oil) as adjuvant (unless indicated otherwise), formulated in water as distribution medium as indicated and sprayed with commercial flat fan nozzles.
(§12) In the following experiments, the herbicidal activity for the individual herbicidal compositions (solo and mixture applications) was assessed at the indicated days after treatment (DAT). The assessments for the damage on undesired weeds caused by the composition was carried out using a scale from 0 to 100%, compared to the untreated control plants. Here, 0 means no damage and 100 means complete destruction of the plants.
(§13) Herbicide A-1 (100 g/l) and trifludimoxazin (500 g/l) were, together with addition of 1% MSO (methylated seed oil) as adjuvant (unless indicated otherwise), formulated in water as distribution medium as indicated and sprayed with commercial flat fan nozzles.

Hordeum vulgare (HORVS) = assay: Post-emergence application in field trials, HORVS; conditions: water volume 100 l/ha, pre plant burndown, 18 g ai/ha
Experimental: as §1, §2, §9, §10, §11, §12, §13

[3] = test system: Brachiaria decumbens (BRADC); assay: Post-emergence application in field trials, BRADC; conditions: 3 DAT; water volume 200 l/ha; growth stage 21-31; height 3-20 cm; 20 g ai/ha
Experimental: as §1, §2, §9, §10, §11
(§14) In the following experiments, the herbicidal activity for the individual herbicidal compositions (solo and mixture applications) was assessed at the indicated days after treatment (DAT). […]

Cyperus iria (CYPIR) = assay: Post-emergence application in field trials, CYPIR; conditions: 3 DAT, height 3-5 cm
Experimental: as §1, §2, §9, §10, §11, §12, §13

Setaria viridis (SETVI) = assay: Post-emergence application in greenhouse trials, SETVI
Experimental: as §1, §2, §3, §4, §5, §6, §7, §8

[4] = test system: Amaranthus palmeri (AMAPA); assay: Post-emergence application in field trials, AMAPA; conditions: 21 DAT, water volume 200 l/ha, 0.25 l/ha Dash MSO Max, pre plant burndown, height 30 cm
Experimental: as §1, §2, §9, §10, §11, §12, §13

Kochia scoparia (KCHSC) = assay: Post-emergence application in greenhouse trials, KCHSC
Experimental: as §1, §2, §3, §4, §5, §6, §7, §8

[5] = test system: Erigeron canadensis (ERICA); assay: Post-emergence application in field trials, ERICA; conditions: 22 DAT; water volume 200 l/ha; growth stage 15-20; 25 g ai/ha
Experimental: as §1, §2, §9, §10, §11, §14

[6] = test system: Euphorbia heterophylla (EPHHL); assay: Post-emergence application in field trials, EPHHL; conditions: 43 DAT; water volume 200 l/ha; growth stage 16-18; height 10-15 cm; 20 g ai/ha
Experimental: as §1, §2, §9, §10, §11, §14

Setaria italica (SETIT) = assay: Post-emergence application in field trials, SETIT; conditions: 22 DAT; water volume 200 l/ha; growth stage 21-31; 30 g ai/ha
Experimental: as §1, §2, §9, §10, §11, §14

[7] = test system: Sorghum halapense (SORHA); assay: Post-emergence application in greenhouse trials, SORHA
Experimental: as §1, §2, §3, §4, §5, §6, §7, §8

[8] = test system: Senna obtusifolia (CASOB); assay: Post-emergence application in field trials, CASOB; conditions: 43 DAT, water volume 200 l/ha, growth stage 12-35, height 5-20 cm
Experimental: as §1, §2, §9, §10, §11, §12, §13

[9] = test system: Abutilon theophrasti (ABUTH); assay: Post-emergence application in greenhouse trials, ABUTH
Experimental: as §1, §2, §3, §4, §5, §6, §7, §8

[10] = 20 DAT, growth stage 14, 0.3 g ai/ha

CCOC(=O)COc1ccccc1Oc1nc(-n2c(=O)cc(C(F)(F)F)n(C)c2=O)c(F)cc1Cl [A-1, ethyl 2-[2-[[3-chloro-5-fluoro-6-[3-methyl-2,6-dioxo-4-(trifluoromethyl)pyrimidin-1-yl]-2-pyridyl]oxy]phenoxy]acetate]
% Herbicidal activity ([1]; 7 DAT, GS 12, A-1 0.3 g ai/ha): 45% | % Herbicidal activity ([1]; 7 DAT, GS 12, A-1 0.4 g ai/ha): 50% | % Herbicidal activity ([1]; 7 DAT, GS 12, A-1 0.8 g ai/ha): 65% | % Herbicidal activity ([1]; 7 DAT, GS 12, A-1 0.9 g ai/ha): 90% | % Herbicidal activity ([1]; 19 DAT, B-1 formulated as 500 g/l, GS 13, A-1 1 g ai/ha): 95% | % Herbicidal activity ([2]; 20 g ai/ha): 75% | % Herbicidal activity ([2]; 30 g ai/ha): 82% | % Herbicidal activity (Hordeum vulgare (HORVS); 28 DAT, growth stage 21-24, height 15-37 cm): 89% | % Herbicidal activity (Hordeum vulgare (HORVS); 29 DAT, growth stage 15-24, height 25-45 cm): 73% | % Herbicidal activity [3]: 77% | % Herbicidal activity (Cyperus iria (CYPIR); water volume 200 l/ha, growth stage 13-14, 25 g ai/ha): 23% | % Herbicidal activity (Cyperus iria (CYPIR); water volume 300 l/ha, burndown in fruit plantation (citrus), GS 13-14, A-1 25 g ai/ha): 23% | % Herbicidal activity (Setaria viridis (SETVI); 7 DAT, GS 14, A-1 0.2 g ai/ha): 30% | % Herbicidal activity (Setaria viridis (SETVI); 7 DAT, GS 14, A-1 0.3 g ai/ha): 30% | % Herbicidal activity (Setaria viridis (SETVI); 7 DAT, GS 14, A-1 0.4 g ai/ha): 40% | % Herbicidal activity (Setaria viridis (SETVI); 20 DAT, GS 14, A-1 0.3 g ai/ha): 15% | % Herbicidal activity (Setaria viridis (SETVI); [10]): 15% | % Herbicidal activity ([4]; A-1 12.5 g ai/ha): 70% | % Herbicidal activity ([4]; A-1 25 g ai/ha): 85% | % Herbicidal activity (Kochia scoparia (KCHSC); 6 DAT, GS 33, A-1 0.4 g ai/ha): 55% | % Herbicidal activity (Kochia scoparia (KCHSC); 6 DAT, GS 33, A-1 0.5 g ai/ha): 65% | % Herbicidal activity (Kochia scoparia (KCHSC); 6 DAT, GS 33, A-1 0.9 g ai/ha): 90% | % Herbicidal activity (Kochia scoparia (KCHSC); 20 DAT, GS 33, A-1 0.2 g ai/ha): 15% | % Herbicidal activity (Kochia scoparia (KCHSC); 20 DAT, GS 33, A-1 0.3 g ai/ha): 55% | % Herbicidal activity (Kochia scoparia (KCHSC); 20 DAT, GS 33, A-1 0.5 g ai/ha): 55% | % Herbicidal activity (Kochia scoparia (KCHSC); 20 DAT, GS 33, A-1 0.9 g ai/ha): 90% | % Herbicidal activity (Kochia scoparia (KCHSC); 20 DAT, growth stage 33, 0.3 g ai/ha): 55% | % Herbicidal activity (Kochia scoparia (KCHSC); 20 DAT, growth stage 33, 0.5 g ai/ha): 55% | % Herbicidal activity [5]: 70% | % Herbicidal activity [6]: 73% | % Herbicidal activity (Setaria italica (SETIT)): 88% | % Herbicidal activity ([7]; 7 DAT, B-1 formulated as 500 g/l, GS 14, A-1 2 g ai/ha): 80% | % Herbicidal activity ([7]; 20 DAT, B-1 formulated as 500 g/l, GS 14, A-1 2 g ai/ha): 60% | % Herbicidal activity ([7]; 20 DAT, GS 14, A-1 0.2 g ai/ha): 10% | % Herbicidal activity ([7]; 20 DAT, GS 14, A-1 0.3 g ai/ha): 10% | % Herbicidal activity [7, 10]: 10% | % Herbicidal activity ([8]; 20 g ai/ha): 58% | % Herbicidal activity ([8]; 30 g ai/ha): 73% | % Herbicidal activity ([9]; 6 DAT, GS 33, A-1 0.2 g ai/ha): 65% | % Herbicidal activity ([9]; 6 DAT, GS 33, A-1 0.3 g ai/ha): 65% | % Herbicidal activity ([9]; 6 DAT, GS 33, A-1 0.8 g ai/ha): 85% | % Herbicidal activity ([9]; 20 DAT, GS 33, A-1 0.2 g ai/ha): 15% | % Herbicidal activity ([9]; 20 DAT, GS 33, A-1 0.3 g ai/ha): 15% | % Herbicidal activity ([9]; 20 DAT, growth stage 33, 0.2 g ai/ha): 15%
